Experimental data reported in PubChem BioAssay (NCI).
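Exposure lasted 48 hours, with cells grown in 96-well plates and compounds tested at five concentrations. GI50 marks 50% less growth. Definition used: TGI = concentration required for complete inhibition of growth.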

Legend:
Test in all cases: inhibition of tumour cell growth, NCI panel, 48 h
[1] = system: CCRF-CEM leukemia
[2] = system: HCT-15 colon
[3] = system: LOX IMVI melanoma
[4] = system: OVCAR-3 ovarian
[5] = system: OVCAR-4 ovarian
[6] = system: SK-MEL-28 melanoma
[7] = system: SK-OV-3 ovarian
[8] = system: SNB-19 CNS
[9] = system: U251 CNS
[10] = system: UACC-62 melanoma

SMILES	GI50 [1] [µM]	TGI [1] [µM]	GI50 [2] [µM]	TGI [2] [µM]	GI50 [3] [µM]	TGI [3] [µM]	GI50 [4] [µM]	TGI [4] [µM]	GI50 [5] [µM]	TGI [5] [µM]	GI50 [6] [µM]	TGI [6] [µM]	GI50 [7] [µM]	TGI [7] [µM]	GI50 [8] [µM]	TGI [8] [µM]	GI50 [9] [µM]	TGI [9] [µM]	GI50 [10] [µM]	TGI [10] [µM]
CCNNC(=O)[C@@H]1[C@H](c2cc(OC)c(OC)c(OC)c2)c2cc3c(cc2[C@H](O)[C@H]1CO)OCO3	0.316	> 100	0.398	> 100	0.357	> 100	0.275	0.804	2.37	> 100	0.599	> 100	0.29	1.08	0.452	> 100	0.321	> 100	0.398	> 100
Cc1ccc(Nc2cc(C)nc(NCCCNc3ccnc4cc(Cl)ccc34)n2)cc1	0.945	3.79	0.767	2.21	1.38	2.83	1.7	3.5	1.24	2.82	1.62	3.06	1.57	3.35	1.75	3.84	1.32	2.67	1.68	3.19
C[C@@H](COCCC(=O)N1CCN(c2ncc(C(F)(F)F)cn2)CC1)Nc1cn[nH]c(=O)c1C(F)(F)F	15	> 100	> 100	> 100	27.9	> 100	97.5	> 100	27.8	> 100	> 100	> 100	53	> 100	34.2	> 100	29.3	> 100	45.3	> 100
Cc1c(-c2nnc(-c3ccccc3)o2)c(=O)n(-c2ccccc2)n1C	–	> 100	–	> 100	–	> 100	–	> 100	–	> 100	–	> 100	–	> 100	–	> 100	–	> 100	–	> 100
CC(C)C(=O)[O-].CC(C)C(=O)[O-].N.N.N.N.[Co+3].[O-][Cl+3]([O-])([O-])[O-]	> 100	> 100	> 100	> 100	> 100	> 100	> 100	> 100	> 100	> 100	> 100	> 100	> 100	> 100	> 100	> 100	> 100	> 100	> 100	> 100
